From patent US9108944B2, “Androgen receptor modulators and uses thereof” (ARAGON PHARMACEUTICALS, INC., priority 2010, dated 2015)

What was measured:
AR-VP16 [1] = molecular target: T1, AR-VP16 (Homo sapiens, UniProt P10275); assay: AR-VP16 DNA Binding Assay, agonist mode (HepG2 cells); format: cell-based; details: Emax >20x DMSO control = agonist
T1 sequence (P10275 560-920 limits assumed): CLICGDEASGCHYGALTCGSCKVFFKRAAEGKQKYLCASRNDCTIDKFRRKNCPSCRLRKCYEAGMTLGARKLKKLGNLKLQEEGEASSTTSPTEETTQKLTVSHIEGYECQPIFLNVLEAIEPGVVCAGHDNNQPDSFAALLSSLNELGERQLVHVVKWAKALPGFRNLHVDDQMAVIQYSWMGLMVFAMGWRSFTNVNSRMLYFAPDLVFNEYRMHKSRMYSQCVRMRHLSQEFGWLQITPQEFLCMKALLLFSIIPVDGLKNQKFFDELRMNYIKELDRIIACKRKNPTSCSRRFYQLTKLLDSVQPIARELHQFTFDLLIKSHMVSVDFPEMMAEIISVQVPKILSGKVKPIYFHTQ

AR-VP16 [2] = molecular target: T1, AR-VP16; assay: AR-VP16 DNA Binding Assay, antagonist mode (HepG2 cells, 0.1 nM R1881); format: cell-based
In short: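 HepG2 cells transiently transfected with AR-VP16 (Lipofectin), incubated overnight, then treated with compound in RPMI with charcoal-stripped serum. Antagonist mode adds R1881 at 0.1 nM final. Cells lysed after 48 h incubation for read-out.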

SMILES | ARVP16 DNA Binding Assay (Agonist mode): Agonist? (AR-VP16 [1]) | IC50 (AR-VP16 [2])
CN1CCN(CCCNC(=O)c2ccc(N3C(=S)N(c4cnc(C#N)c(C(F)(F)F)c4)C(=O)C34CCC4)cc2F)CC1 [Compound 269, 4-(7-(6-Cyano-5-(trifluoromethyl)pyridin-3-yl)-8-oxo-6-thioxo-5,7-diazaspiro[3.4]octan-5-yl)-2-fluoro-N-(3-(4-methylpiperazin-1-yl)propyl)benzamide] | No (Agonist defined as a compound whose Emax in the ARVP16 DNA Binding Assay (Agonist mode) is >20x DMSO control) | < 1 µM
N#Cc1ncc(N2C(=O)C3(CCC3)N(c3ccc(C(=O)N4CCCC4)c(F)c3)C2=S)cc1C(F)(F)F [Compound 270, 5-(5-(3-Fluoro-4-(pyrrolidine-1-carbonyl)phenyl)-8-oxo-6-thioxo-5,7-diazaspiro[3.4]octan-7-yl)-3-(trifluoromethyl)picolinonitrile] | No (Agonist defined as a compound whose Emax in the ARVP16 DNA Binding Assay (Agonist mode) is >20x DMSO control) | > 1 µM
N#Cc1ncc(N2C(=O)C3(CCC3)N(c3ccc(C(=O)N4CCOCC4)c(F)c3)C2=S)cc1C(F)(F)F [Compound 271, 5-(5-(3-Fluoro-4-(morpholine-4-carbonyl)phenyl)-8-oxo-6-thioxo-5,7-diazaspiro[3.4]octan-7-yl)-3-(trifluoromethyl)picolinonitrile] | No (Agonist defined as a compound whose Emax in the ARVP16 DNA Binding Assay (Agonist mode) is >20x DMSO control) | > 1 µM
Cc1cc(N2C(=O)C3(CCC3)N(c3ccc(C(=O)Nc4ccccc4)c(F)c3)C2=S)cnc1C#N [Compound 272, 4-(7-(6-Cyano-5-methylpyridin-3-yl)-8-oxo-6-thioxo-5,7-diazaspiro[3.4]octan-5-yl)-2-fluoro-N-phenylbenzamide] | No (Agonist defined as a compound whose Emax in the ARVP16 DNA Binding Assay (Agonist mode) is >20x DMSO control) | < 1 µM
Cc1cc(N2C(=O)C3(CCC3)N(c3ccc(C(=O)NCc4cccs4)c(F)c3)C2=S)cnc1C#N [Compound 274, 4-(7-(6-Cyano-5-methylpyridin-3-yl)-8-oxo-6-thioxo-5,7-diazaspiro[3.4]octan-5-yl)-2-fluoro-N-(thiophen-2-ylmethyl)benzamide] | No (Agonist defined as a compound whose Emax in the ARVP16 DNA Binding Assay (Agonist mode) is >20x DMSO control) | < 1 µM
Cc1cc(N2C(=O)C3(CCC3)N(c3ccc(C(=O)NCCCN4CCCC4)c(F)c3)C2=S)cnc1C#N [Compound 275, 4-(7-(6-Cyano-5-methylpyridin-3-yl)-8-oxo-6-thioxo-5,7-diazaspiro[3.4]octan-5-yl)-2-fluoro-N-(3-(pyrrolidin-1-yl)propyl)benzamide] | No (Agonist defined as a compound whose Emax in the ARVP16 DNA Binding Assay (Agonist mode) is >20x DMSO control) | > 1 µM
CN1CCC(NC(=O)c2ccc(N3C(=S)N(c4cnc(C#N)c(C(F)(F)F)c4)C(=O)C34CCC4)cc2F)CC1 [Compound 276, 4-(7-(6-Cyano-5-(trifluoromethyl)pyridin-3-yl)-8-oxo-6-thioxo-5,7-diazaspiro[3.4]octan-5-yl)-2-fluoro-N-(1-methylpiperidin-4-yl)benzamide] | No (Agonist defined as a compound whose Emax in the ARVP16 DNA Binding Assay (Agonist mode) is >20x DMSO control) | > 1 µM
CCCCNC(=O)c1ccc(N2C(=S)N(c3cnc(C#N)c(C(F)(F)F)c3)C(=O)C23CCC3)cc1F [Compound 277, N-Butyl-4-(7-(6-cyano-5-(trifluoromethyl)pyridin-3-yl)-8-oxo-6-thioxo-5,7-diazaspiro[3.4]octan-5-yl)-2-fluorobenzamide] | No (Agonist defined as a compound whose Emax in the ARVP16 DNA Binding Assay (Agonist mode) is >20x DMSO control) | < 1 µM
CC(C)NC(=O)c1ccc(N2C(=S)N(c3cnc(C#N)c(C(F)(F)F)c3)C(=O)C23CCC3)cc1F [Compound 279, 4-(7-(6-Cyano-5-(trifluoromethyl)pyridin-3-yl)-8-oxo-6-thioxo-5,7-diazaspiro[3.4]octan-5-yl)-2-fluoro-N-isopropylbenzamide] | No (Agonist defined as a compound whose Emax in the ARVP16 DNA Binding Assay (Agonist mode) is >20x DMSO control) | < 1 µM
CC(C)CNC(=O)c1ccc(N2C(=S)N(c3cnc(C#N)c(C(F)(F)F)c3)C(=O)C23CCC3)cc1F [Compound 280, 4-(7-(6-Cyano-5-(trifluoromethyl)pyridin-3-yl)-8-oxo-6-thioxo-5,7-diazaspiro[3.4]octan-5-yl)-2-fluoro-N-isobutylbenzamide] | No (Agonist defined as a compound whose Emax in the ARVP16 DNA Binding Assay (Agonist mode) is >20x DMSO control) | < 1 µM
N#Cc1ncc(N2C(=O)C3(CCC3)N(c3ccc(C(=O)NCC4CCCC4)c(F)c3)C2=S)cc1C(F)(F)F [Compound 283, 4-(7-(6-Cyano-5-(trifluoromethyl)pyridin-3-yl)-8-oxo-6-thioxo-5,7-diazaspiro[3.4]octan-5-yl)-N-(cyclopentylmethyl)-2-fluorobenzamide] | No (Agonist defined as a compound whose Emax in the ARVP16 DNA Binding Assay (Agonist mode) is >20x DMSO control) | < 1 µM
N#Cc1ncc(N2C(=O)C3(CCC3)N(c3ccc(C(=O)NCc4cccc(Cl)c4)c(F)c3)C2=S)cc1C(F)(F)F [Compound 288, N-(3-Chlorobenzyl)-4-(7-(6-cyano-5-(trifluoromethyl)pyridin-3-yl)-8-oxo-6-thioxo-5,7-diazaspiro[3.4]octan-5-yl)-2-fluorobenzamide] | No (Agonist defined as a compound whose Emax in the ARVP16 DNA Binding Assay (Agonist mode) is >20x DMSO control) | < 1 µM
N#Cc1ncc(N2C(=O)C3(CCC3)N(c3ccc(C(=O)NCc4ccc(Cl)cc4)c(F)c3)C2=S)cc1C(F)(F)F [Compound 289, N-(4-Chlorobenzyl)-4-(7-(6-cyano-5-(trifluoromethyl)pyridin-3-yl)-8-oxo-6-thioxo-5,7-diazaspiro[3.4]octan-5-yl)-2-fluorobenzamide] | No (Agonist defined as a compound whose Emax in the ARVP16 DNA Binding Assay (Agonist mode) is >20x DMSO control) | < 1 µM
N#Cc1ncc(N2C(=O)C3(CCC3)N(c3ccc(C(=O)NCc4cnccn4)c(F)c3)C2=S)cc1C(F)(F)F [Compound 290, 4-(7-(6-Cyano-5-(trifluoromethyl)pyridin-3-yl)-8-oxo-6-thioxo-5,7-diazaspiro[3.4]octan-5-yl)-2-fluoro-N-(pyrazin-2-ylmethyl)benzamide] | No (Agonist defined as a compound whose Emax in the ARVP16 DNA Binding Assay (Agonist mode) is >20x DMSO control) | < 1 µM
Cc1ccc(CNC(=O)c2ccc(N3C(=S)N(c4cnc(C#N)c(C(F)(F)F)c4)C(=O)C34CCC4)cc2F)o1 [Compound 291, 4-(7-(6-Cyano-5-(trifluoromethyl)pyridin-3-yl)-8-oxo-6-thioxo-5,7-diazaspiro[3.4]octan-5-yl)-2-fluoro-N-((5-methylfuran-2-yl)methyl)benzamide] | No (Agonist defined as a compound whose Emax in the ARVP16 DNA Binding Assay (Agonist mode) is >20x DMSO control) | < 1 µM
N#Cc1ncc(N2C(=O)C3(CCC3)N(c3ccc(CCCC(=O)Nc4ccccc4)cc3)C2=S)cc1C(F)(F)F [Compound 292, 4-(4-(7-(6-Cyano-5-(trifluoromethyl)pyridin-3-yl)-8-oxo-6-thioxo-5,7-diazaspiro[3.4]octan-5-yl)phenyl)-N-phenylbutanamide] | No (Agonist defined as a compound whose Emax in the ARVP16 DNA Binding Assay (Agonist mode) is >20x DMSO control) | > 1 µM
Cc1cc(N2C(=O)C3(CCC3)N(c3ccc(C(=O)NCc4ccc(F)cc4)c(F)c3)C2=S)cnc1C#N [Compound 293, 4-(7-(6-Cyano-5-methylpyridin-3-yl)-8-oxo-6-thioxo-5,7-diazaspiro[3.4]octan-5-yl)-2-fluoro-N-(4-fluorobenzyl)benzamide] | No (Agonist defined as a compound whose Emax in the ARVP16 DNA Binding Assay (Agonist mode) is >20x DMSO control) | < 1 µM
Cc1cc(N2C(=O)C3(CCC3)N(c3ccc(C(=O)Nc4ccccc4Cl)c(F)c3)C2=S)cnc1C#N [Compound 294, N-(2-Chlorophenyl)-4-(7-(6-cyano-5-methylpyridin-3-yl)-8-oxo-6-thioxo-5,7-diazaspiro[3.4]octan-5-yl)-2-fluorobenzamide] | No (Agonist defined as a compound whose Emax in the ARVP16 DNA Binding Assay (Agonist mode) is >20x DMSO control) | < 1 µM
Cc1cc(N2C(=O)C3(CCC3)N(c3ccc(C(=O)Nc4cccc(Cl)c4)c(F)c3)C2=S)cnc1C#N [Compound 295, N-(3-Chlorophenyl)-4-(7-(6-cyano-5-methylpyridin-3-yl)-8-oxo-6-thioxo-5,7-diazaspiro[3.4]octan-5-yl)-2-fluorobenzamide] | No (Agonist defined as a compound whose Emax in the ARVP16 DNA Binding Assay (Agonist mode) is >20x DMSO control) | < 1 µM
